Experimental findings from PMC5454378, “Histone deacetylase 10 structure and molecular function as a polyamine deacetylase” (Nature Communications, 2017) are described below.

Holding throughout (assay type): biochemical
Assay [1] addresses T1, zHDAC10 (Danio rerio, UniProt F1QCV2).
T1 construct: gene hdac10; full-length, residues 2–675
T1 sequence (F1QCV2 2-675): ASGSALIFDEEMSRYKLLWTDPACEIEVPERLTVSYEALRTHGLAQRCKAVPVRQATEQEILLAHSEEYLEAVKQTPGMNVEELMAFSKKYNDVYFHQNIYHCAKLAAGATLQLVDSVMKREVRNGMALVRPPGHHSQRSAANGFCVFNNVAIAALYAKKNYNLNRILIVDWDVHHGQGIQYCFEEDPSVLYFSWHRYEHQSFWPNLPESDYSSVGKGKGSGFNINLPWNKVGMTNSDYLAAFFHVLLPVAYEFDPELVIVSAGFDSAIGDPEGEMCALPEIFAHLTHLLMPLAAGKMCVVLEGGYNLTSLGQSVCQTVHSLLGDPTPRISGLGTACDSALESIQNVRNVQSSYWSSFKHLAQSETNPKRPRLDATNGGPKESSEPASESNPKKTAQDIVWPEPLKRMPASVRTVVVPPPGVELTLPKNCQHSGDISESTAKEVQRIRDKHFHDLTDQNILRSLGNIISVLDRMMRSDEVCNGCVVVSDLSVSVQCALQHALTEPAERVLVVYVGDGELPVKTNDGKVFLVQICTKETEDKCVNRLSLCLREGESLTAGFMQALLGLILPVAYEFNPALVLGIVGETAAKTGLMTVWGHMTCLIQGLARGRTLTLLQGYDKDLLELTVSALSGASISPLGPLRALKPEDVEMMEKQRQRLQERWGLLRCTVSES
Kind of assay: LC–MS steady-state kinetics.

The target of assay [2] is T1, zHDAC10. Description: LC–MS deacetylase inhibition assay with N8-acetylspermidine; Ki by Cheng-Prusoff.
For assay [3], the target named is T2, hHDAC10 (Homo sapiens, UniProt Q969S8).
T2 construct: gene HDAC10; full-length, residues 2–669, MBP fusion
T2 sequence (Q969S8 2-669): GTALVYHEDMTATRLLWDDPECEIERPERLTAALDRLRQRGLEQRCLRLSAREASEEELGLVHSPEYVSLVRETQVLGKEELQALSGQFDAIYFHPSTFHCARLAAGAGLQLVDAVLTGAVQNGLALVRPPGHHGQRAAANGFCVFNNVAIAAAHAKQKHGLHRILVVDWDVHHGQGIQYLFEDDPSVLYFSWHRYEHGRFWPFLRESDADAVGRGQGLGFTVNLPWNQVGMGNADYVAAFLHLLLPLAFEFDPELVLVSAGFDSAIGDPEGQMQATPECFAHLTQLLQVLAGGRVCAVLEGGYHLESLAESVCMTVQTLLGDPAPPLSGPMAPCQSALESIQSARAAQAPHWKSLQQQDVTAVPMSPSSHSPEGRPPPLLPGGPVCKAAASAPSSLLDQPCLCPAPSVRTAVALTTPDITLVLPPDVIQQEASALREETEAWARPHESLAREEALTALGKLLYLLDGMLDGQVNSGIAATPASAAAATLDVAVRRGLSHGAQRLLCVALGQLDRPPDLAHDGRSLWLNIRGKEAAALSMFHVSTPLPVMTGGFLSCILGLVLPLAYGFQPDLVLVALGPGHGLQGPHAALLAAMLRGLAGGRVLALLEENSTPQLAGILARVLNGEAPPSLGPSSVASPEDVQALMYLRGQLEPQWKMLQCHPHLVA
Description: LC–MS steady-state kinetics.

For assay [4], the target named is T1, zHDAC10. Description: LC–MS steady-state kinetics (kcat/KM).
Assay [5] has as its target T2, hHDAC10. Description: LC–MS steady-state kinetics (kcat/KM).

As to `CC(=O)NCCCCCCCCN` [AcDAO, N-(8-aminooctyl)acetamide], the LC-MS steady-state kinetics entry at zHDAC10 [1] was “also observed with acetylcadaverine and acetylputrescine, as well as N-(8-aminooctyl)acetamide”.

`NCCCNCCCCCC(=O)C(F)(F)F` [AAT, 7-[(3-aminopropyl)amino]-1,1,1-trifluoroheptan-2-one] displayed an inhibitory constant (Ki) on zHDAC10 [2] of 700 ± 200 nM.

For `CC(=O)NCCCCN` [AcPUT, acetylputrescine], the LC-MS steady-state kinetics result was “substantial catalytic activity was also observed with acetylcadaverine and acetylputrescine” at zHDAC10 [1]; “substantial catalytic activity was also observed with acetylcadaverine and acetylputrescine” on hHDAC10 [3].

Take `CC(=O)NCCCCCN` [AcCAD, acetylcadaverine]: the LC-MS steady-state kinetics result at zHDAC10 [1] was “substantial catalytic activity was also observed with acetylcadaverine and acetylputrescine”; on hHDAC10 [3], “substantial catalytic activity was also observed with acetylcadaverine and acetylputrescine”.

`CC(=O)NCCCCNCCCN` [N^8-AcSPD, N^8-acetylspermidine]: the “LC-MS steady-state kinetics (kcat/KM)” value on zHDAC10 [4] is given as 4,600±300 M^−1 s^−1; at hHDAC10 [5], 2,900±200 M^−1 s^−1.
